Test results reported in patent US20240041042A1, “1-(PYRIDYL)-5-AZINYLPYRAZOLE DERIVATIVES, AND THEIR USE FOR CONTROL OF UNDESIRED PLANT GROWTH” (Bayer Aktiengesellschaft, priority 2020, published 2024).
Where two headings read alike, the source gives them in different places.

Columns and labels:
Type in all cases: in vivo
[1] = system: Alopecurus myosuroides (ALOMY); test: Pre-emergence herbicidal action against ALOMY; details: scored visually after about 3 weeks, 100% = plants have died
Method in brief: (§1)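 Application rates ran to 320 g/ha or lower, with several dosages tested on the same weeds. The compound, as wettable powder or emulsion concentrate, is sprayed pre-emergence onto soil over sown seeds; greenhouse growth follows, and effect is rated visually after roughly 3 weeks.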

[2] = system: Amaranthus retroflexus (AMARE); test: Pre-emergence herbicidal action against AMARE; details: visual scoring after about 3 weeks vs untreated controls
Method in brief: as §1

Avena fatua (AVEFA) [3] = test: Pre-emergence herbicidal action against AVEFA; details: 320 g/ha, visual scoring after about 3 weeks vs untreated controls
Method in brief: as §1

Lolium rigidum (LOLRI) [4] = test: Pre-emergence herbicidal action against LOLRI
Method in brief: as §1

[5] = system: Pharbitis purpurea (PHBPU); test: Pre-emergence herbicidal action against PHBPU; details: dosage 320 g/ha
Method in brief: as §1

Setaria viridis (SETVI) [6] = test: Pre-emergence herbicidal action against SETVI
Method in brief: as §1

[7] = system: Verconica persica (VERPE); test: Pre-emergence herbicidal action against VERPE
Method in brief: as §1

Viola tricolor (VIOTR) [8] = test: Pre-emergence herbicidal action against VIOTR
Method in brief: as §1

Oryza sativa (ORYSA) [9] = details: pre-emergence, 80 g/ha, crop plant compatibility, in comparison to untreated controls
Method in brief: (§2)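 Crop injury rated visually in percent against untreated plants roughly 3 weeks after treatment (0% no effect, 100% plants dead). Compounds, as WP or EC with 0.5% additive in 600 l/ha water, were applied to the covering soil right after sowing; greenhouse growth. Suffixes a, b, c denote different dosages.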

Zea mays (ZEAMX) [10] = details: pre-emergence, 80 g/ha, crop plant compatibility, in comparison to untreated controls
Method in brief: as §2

[11] = system: Abutilon theophrasti (ABUTH); test: Post-emergence herbicidal action against ABUTH; details: visual rating about 3 weeks after treatment vs untreated controls (100% = plants have died, 0% = like control plants)
Method in brief: (§3)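 Values are percent visual activity (0% like control, 100% plants dead) after about 3 weeks in the greenhouse. Treatment: post-emergence spray at one-leaf stage, 600 l/ha spray volume, 0.5% additive, doses 320 g/ha or lower.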

[12] = system: Amaranthus retroflexus (AMARE); test: Post-emergence herbicidal action against AMARE; details: 80 g/ha, visual rating about 3 weeks after treatment vs untreated controls (100% = plants have died, 0% = like control plants)
Method in brief: as §3

[13] = system: Pharbitis purpurea (PHBPU); test: Post-emergence herbicidal action against PHBPU
Method in brief: as §3

[14] = system: Verconica persica (VERPE); test: Post-emergence herbicidal action against VERPE
Method in brief: as §3

Oryza sativa (ORYSA) [15] = details: crop plant compatibility
Method in brief: (§4)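 Visual rating (% effect vs. untreated plants; 100% = plant death) made about 3 weeks after treatment. Plants had been sprayed at one-leaf stage, 2–3 weeks post-sowing, with aqueous WP/EC preparations containing 0.5% additive, 600 l/ha water volume; a, b, c mark dose levels.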

[16] = system: Triticum aestivum (TRZAS); details: crop plant compatibility, effect vs untreated controls
Method in brief: as §4

[17] = system: Echinochloa crus-galli (ECHCG); test: Pre-emergence herbicidal action against ECHCG; details: dosage 320 g/ha
Method in brief: as §1

[18] = system: Matricaria inodora (MATIN); test: Pre-emergence herbicidal action against MATIN; details: dosage 320 g/ha
Method in brief: as §1

[19] = system: Polygonum convolvulus (POLCO); test: Pre-emergence herbicidal action against POLCO
Method in brief: as §1

[20] = system: Alopecurus myosuroides (ALOMY); test: Post-emergence herbicidal action against ALOMY; details: visual rating about 3 weeks after treatment vs untreated controls (100% = plants have died, 0% = like control plants)
Method in brief: as §3

Avena fatua (AVEFA) [21] = test: Post-emergence herbicidal action against AVEFA; details: visual rating about 3 weeks after treatment
Method in brief: as §3

[22] = system: Echinochloa crus-galli (ECHCG); test: Post-emergence herbicidal action against ECHCG
Method in brief: as §3

Setaria viridis (SETVI) [23] = test: Post-emergence herbicidal action against SETVI; details: dosage 320 g/ha
Method in brief: as §3

Viola tricolor (VIOTR) [24] = test: Post-emergence herbicidal action against VIOTR
Method in brief: as §3

Zea mays (ZEAMX) [25] = system: Zea mays (ZEAMX)
Method in brief: as §4

[26] = system: Polygonum convolvulus (POLCO); test: Post-emergence herbicidal action against POLCO; details: dosage 80 g/ha
Method in brief: as §3

[27] = system: Digitaria sanguinalis (DIGSA); test: Pre-emergence herbicidal action against DIGSA
Method in brief: as §1

Lolium rigidum (LOLRI) [28] = test: Post-emergence herbicidal action against LOLRI; details: dosage 80 g/ha
Method in brief: as §3

[29] = system: Matricaria inodora (MATIN); test: Post-emergence herbicidal action against MATIN; details: dosage 80 g/ha
Method in brief: as §3

[30] = 20 g/ha, effect vs untreated controls
[31] = 80 g/ha, effect in comparison to untreated controls

O=C(O)COc1nn(-c2ccccn2)c(-c2ccc(F)nc2)c1I [Example I-103]
100%: Pre-emergence action against ALOMY ([1]; 320 g/ha) | Pre-emergence action against LOLRI in % (Lolium rigidum (LOLRI) [4]; dosage 320 g/ha)
90%: Pre-emergence action against AMARE in % ([2]; 320 g/ha) | Pre-emergence action against SETVI in % (Setaria viridis (SETVI) [6]; dosage 320 g/ha) | Pre-emergence action against VERPE in % ([7]; dosage 320 g/ha) | Pre-emergence action against VIOTR in % (Viola tricolor (VIOTR) [8]; 320 g/ha, Viola tricolor)
0%: Pre-emergence action against ORYSA in % (Oryza sativa (ORYSA) [9]) | Pre-emergence action against ZEAMX in % (Zea mays (ZEAMX) [10]) | Post-emergence action against ORYSA in % (Oryza sativa (ORYSA) [15]; [30]) | Post-emergence action against ORYSA in % (Oryza sativa (ORYSA) [15]; [31]) | Post-emergence action against TRZAS in % ([16]; 20 g/ha)
80%: Pre-emergence action against AMARE in % ([2]; 80 g/ha) | Pre-emergence action against AVEFA in % (Avena fatua (AVEFA) [3]) | Pre-emergence action against PHBPU in % [5] | Post-emergence action against ABUTH in % ([11]; 80 g/ha) | Post-emergence action against AMARE in % [12] | Post-emergence action against PHBPU in % ([13]; dosage 80 g/ha) | Post-emergence action against VERPE in % ([14]; dosage 80 g/ha)

CCOC(=O)COc1nn(-c2ncccc2C(F)(F)F)c(-c2cncc(F)c2)c1I [Example I-225]
90%: Pre-emergence action against ALOMY ([1]; 320 g/ha) | Pre-emergence action against AVEFA in % (Avena fatua (AVEFA) [3]) | Pre-emergence action against POLCO in % ([19]; dosage 320 g/ha) | Pre-emergence action against VERPE in % ([7]; dosage 320 g/ha) | Pre-emergence action against VIOTR in % (Viola tricolor (VIOTR) [8]; dosage 80 g/ha) | Post-emergence action against ALOMY in % ([20]; 320 g/ha) | Post-emergence action against ECHCG in % ([22]; dosage 320 g/ha) | Post-emergence action against VERPE in % ([14]; 320 g/ha, VERPE)
10%: Pre-emergence action against ZEAMX in % (Zea mays (ZEAMX) [10]) | Post-emergence action against ORYSA in % (Oryza sativa (ORYSA) [15]; [31])
100%: Pre-emergence action against AMARE in % ([2]; 320 g/ha) | Pre-emergence action against VIOTR in % (Viola tricolor (VIOTR) [8]; 320 g/ha, Viola tricolor)
80%: Pre-emergence action against ALOMY ([1]; 80 g/ha) | Pre-emergence action against ECHCG in % [17] | Pre-emergence action against MATIN in % [18] | Pre-emergence action against SETVI in % (Setaria viridis (SETVI) [6]; dosage 320 g/ha) | Pre-emergence action against VERPE in % ([7]; dosage 80 g/ha) | Post-emergence action against ABUTH in % ([11]; 320 g/ha) | Post-emergence action against AVEFA in % (Avena fatua (AVEFA) [21]; 320 g/ha) | Post-emergence action against ECHCG in % ([22]; dosage 80 g/ha) | Post-emergence action against PHBPU in % ([13]; dosage 80 g/ha) | Post-emergence action against PHBPU in % ([13]; dosage 320 g/ha) | Post-emergence action against SETVI in % (Setaria viridis (SETVI) [23]) | Post-emergence action against VERPE in % ([14]; dosage 80 g/ha) | Post-emergence action against VIOTR in % (Viola tricolor (VIOTR) [24]; 80 g/ha) | Post-emergence action against VIOTR in % (Viola tricolor (VIOTR) [24]; 320 g/ha)
20%: Pre-emergence action against ORYSA in % (Oryza sativa (ORYSA) [9]) | Post-emergence action against TRZAS in % ([16]; 80 g/ha) | Post-emergence action against ZEAMX in % (Zea mays (ZEAMX) [25]; crop plant compatibility, 80 g/ha, effect vs untreated controls)

O=C(O)COc1nn(-c2ccccn2)c(-c2ccc(F)nc2)c1C(F)(F)F [Example I-99]
20%: Post-emergence action against TRZAS in % ([16]; 20 g/ha)
80%: Pre-emergence action against ALOMY ([1]; 80 g/ha) | Post-emergence action against AMARE in % [12] | Post-emergence action against PHBPU in % ([13]; dosage 80 g/ha) | Post-emergence action against VERPE in % ([14]; dosage 80 g/ha)
100%: Pre-emergence action against ALOMY ([1]; 320 g/ha) | Pre-emergence action against LOLRI in % (Lolium rigidum (LOLRI) [4]; dosage 320 g/ha)
0%: Pre-emergence action against ORYSA in % (Oryza sativa (ORYSA) [9]) | Pre-emergence action against ZEAMX in % (Zea mays (ZEAMX) [10]) | Post-emergence action against ORYSA in % (Oryza sativa (ORYSA) [15]; [30]) | Post-emergence action against ORYSA in % (Oryza sativa (ORYSA) [15]; [31]) | Post-emergence action against ZEAMX in % (crop plant compatibility) (Zea mays (ZEAMX) [25]; 20 g/ha, ZEAMX, effect in comparison to untreated controls)
90%: Pre-emergence action against AMARE in % ([2]; 320 g/ha) | Pre-emergence action against AVEFA in % (Avena fatua (AVEFA) [3]) | Pre-emergence action against MATIN in % [18] | Pre-emergence action against POLCO in % ([19]; dosage 320 g/ha) | Pre-emergence action against SETVI in % (Setaria viridis (SETVI) [6]; dosage 320 g/ha) | Pre-emergence action against VERPE in % ([7]; dosage 320 g/ha) | Pre-emergence action against VIOTR in % (Viola tricolor (VIOTR) [8]; 320 g/ha, Viola tricolor) | Post-emergence action against ALOMY in % ([20]; 80 g/ha) | Post-emergence action against POLCO in % [26]

COC(=O)[C@@H](C)NC(=O)COc1nn(-c2ccccn2)c(-c2ccnc(F)c2)c1Br [Example I-59]
90%: Pre-emergence action against POLCO in % ([19]; dosage 320 g/ha) | Pre-emergence action against SETVI in % (Setaria viridis (SETVI) [6]; dosage 80 g/ha) | Pre-emergence action against VERPE in % ([7]; dosage 320 g/ha) | Pre-emergence action against VIOTR in % (Viola tricolor (VIOTR) [8]; 320 g/ha, Viola tricolor) | Pre-emergence action against VIOTR in % (Viola tricolor (VIOTR) [8]; dosage 80 g/ha) | Post-emergence action against ALOMY in % ([20]; 80 g/ha) | Post-emergence action against AMARE in % [12] | Post-emergence action against VERPE in % ([14]; dosage 80 g/ha)
80%: Pre-emergence action against ALOMY ([1]; 80 g/ha) | Pre-emergence action against AVEFA in % (Avena fatua (AVEFA) [3]) | Pre-emergence action against LOLRI in % (Lolium rigidum (LOLRI) [4]; dosage 80 g/ha) | Pre-emergence action against POLCO in % ([19]; dosage 80 g/ha) | Post-emergence action against ABUTH in % ([11]; 80 g/ha) | Post-emergence action against AVEFA in % (Avena fatua (AVEFA) [21]; 80 g/ha) | Post-emergence action against ECHCG in % ([22]; dosage 80 g/ha) | Post-emergence action against LOLRI in % (Lolium rigidum (LOLRI) [28]) | Post-emergence action against MATIN in % [29] | Post-emergence action against PHBPU in % ([13]; dosage 80 g/ha) | Post-emergence action against POLCO in % [26] | Post-emergence action against VIOTR in % (Viola tricolor (VIOTR) [24]; 80 g/ha)
0%: Post-emergence action against ORYSA in % (Oryza sativa (ORYSA) [15]; [30]) | Post-emergence action against ORYSA in % (Oryza sativa (ORYSA) [15]; [31])
100%: Pre-emergence action against ALOMY ([1]; 320 g/ha) | Pre-emergence action against AMARE in % ([2]; 80 g/ha) | Pre-emergence action against AMARE in % ([2]; 320 g/ha) | Pre-emergence action against DIGSA in % ([27]; 80 g/ha, visual scoring after about 3 weeks vs untreated controls) | Pre-emergence action against DIGSA in % ([27]; dosage 320 g/ha) | Pre-emergence action against ECHCG in % [17] | Pre-emergence action against LOLRI in % (Lolium rigidum (LOLRI) [4]; dosage 320 g/ha) | Pre-emergence action against SETVI in % (Setaria viridis (SETVI) [6]; dosage 320 g/ha)
20%: Pre-emergence action against ORYSA in % (Oryza sativa (ORYSA) [9])
